Tests used:
[1] = Evaluation of the lethal dose50 (LD50), acute toxicity; details: in vivo, ip; mouse; 14 days observation
Protocol: Swiss Nos (Nossan, Correzzana, Milano) mice, weighing 18 to 20 g each, on an empty stomach for 18 hours with water "ad libitum" and kept in cages with grid floor, were used. The animals, divided into groups of 10 animals each, (5M+5F) were treated intraperitoneally (10 ml/kg) with the compounds under examination dissolved in water or suspended in 0.5% carboxymethylcellulose. The animals were kept in the cages and the mortality occurred within the following 6 hours was noted down. At the expiring of the 6 hours the animals were allowed to eat up to the end of the experimentation which lasted 14 days. During this period all the toxic symptoms and the mortality occuring were noted.
The animals which died during the test period and those which were sacrificed at the end of the same, underwent autopsy for a macroscopic examination of their main organs. The experimental data were statistically compared with the X^2 method and LD50 was extrapolated by the `probit` method.

[2] = system: mortality induced by compound 48/80; assay: Mortality inhibition by compound 48/80; type: in vivo, Sprague Dawley Nos male rats; details: ip, half an hour before 2 mg/kg i.v. compound 48/80; rat; 4 hours observation
Protocol: For evaluating the protection to the mortality induced by compound 48/80 administration the method described by C. J. E. Niemegeers et al. (Arch. Int. Pharmacodyn, 234,164,1978) was followed.
Sprague Dawley Nos male rats (Nossan, Correzzana, Milano) weighing 140 to 150 g, divided into groups of 10 animals each, on an empty stomach for 24 hours with water "ad libitum", were kept in cages with a grid floor, and treated intravenously with 2 mg/kg of compound 48/80 (1 ml/rat).
The animals were kept under observation for 4 hours taking note of their mortality. The results were expressed as the number of animals dead with respect to the number of treated animals. Compounds under examination or the carrier were administered half an hour before administration of compound 48/80 by intraperitoneal route, dissolved in H2 O (5 ml/kg). The experimental data were submitted to the variance analysis and to subsequent multiple comparisons according to Dunnet (D. J. Finney, in "Statistical Methods in Biological assay", Ed. L. Griffin and Co. Ltd., pag. 152,1957, Edition Ames Iowa, 1971).

[3] = system: mortality induced by histamine; assay: Effect on the mortality induced by histamine; type: in vivo, male albino guinea pigs (Dunkin-Hartley); details: Cavia porcellus, po, 1 h; p.o., 60 min before 1.25 mg/kg i.v. histamine dihydrochloride; guinea pig; read-out: Mortality induced by hystamine ED50 p.o.
Protocol: The method described by Romer D. et al. (Med. Welt. 17,791, 1966) was followed and the tests were carried out on male albino guinea pigs (Dunkin-Hartley), weighing 350 to 450 g which were kept in cages with a grid floor, on an empty stomach for 24 hours with water ad libitum. The compounds under examination have been orally administered to the animals, dissolved in 0.5% carboxymethylcellulose, 60 minutes before intravenous administration of 1.25 mg/kg of histamine dihydrochloride in saline solution. In the control animals, treated with carboxymethylcellulose, the intravenous administration of histamine dihydrochloride induced a 100% mortality.
It has been evaluated ED50, which corresponds to the amount of the compound able to inhibit to 50% the mortality induced by histamine: estimation of ED50 has been made applying the `probit` method (Finney D. J. "Statistical method in biological assay", pg 512,1957).

SMILES	LD50 at 336 h [1] [mg/kg]	ED50 [2] [mg/kg]	ED50 [3] [mg/kg]
CC(C)(C)c1ccc(C(O)CCCN2CCC(C(O)(c3ccccc3)c3ccccc3)CC2)cc1 (stereo not drawn) [Terfenadine, reference compound]	620	1.09	0.436
CCOCCn1c(CCCN(C)C)nc2cccnc21 [Example 1, 3-(2-Ethoxyethyl)-2-(3-dimethylaminopropyl)-3H-imidazo [4,5-b] pyridine]	> 100	0.5	0.03
CCOCCn1c(CCN(C)C)nc2cccnc21 [Example 2, 3-(2-Ethoxyethyl)-2-(2-dimethylaminoethyl)-3 H-imidazo [4,5-b] pyridine]	> 100	0.3	0.025
CCOCCn1c(CCCN2CCOCC2)nc2cccnc21.O=C(O)/C=C/C(=O)O.O=C(O)/C=C/C(=O)O [Example 9, 3-(2-Ethoxyethyl)-2-[3-(morpholin-4-yl)propyl]-3H-imidazo [4,5-b] pyridine difumarate]	> 100	0.5	0.003

Reference: patent US5011838A, “Pharmacologically active 2-substituted 3-(2-ethoxyethyl) imidazo[4,5-b]pyridines and pharmaceutical compositions containing them” (Dompe Farmaceutici S.p.A., priority 1989, dated 1991)
